One molecule from patent US7446102B2, “Antibacterial amide macrocycles IV” (priority 2004, dated 2008) can be followed below.

This assay has as its system S. aureus 133. Put plainly: Systemic infection with S. aureus 133 (mouse sepsis model). The assay is classed as in vivo. The note with it: female CFW1 mice, i.p. infection, i.v. therapy 30 minutes after the infection, survival over 6 days.

In the case of `NCCC[C@H](NC(=O)[C@@H]1Cc2cc(ccc2O)-c2ccc(O)c(c2)C[C@H](N)C(=O)N[C@@H](CCCN)C(=O)N1)C(=O)NCCN` [Example 2, (8S,11S,14S)-14-Amino-N-((1S)-4-amino-1-{[(2-aminoethyl)amino]carbonyl}butyl)-11-(3-aminopropyl)-5,17-dihydroxy-10,13-dioxo-9,12-diazatricyclo[14.3.1.1^2,6]henicosa-1(20),2(21),3,5,16,18-hexaene-8-carboxamide tetra(hydrotrifluoroacetate)], the “therapeutic effect ED100” value worked out at 1.25 mg/kg.
